In the test the target is T1, human type 1 glycine transporter (GlyT1) (Homo sapiens, UniProt P48067).
T1 construct: T98G cells (glioma cells) expressing human type 1 glycine transporter (GlyT1) were used
T1 sequence (P48067 1-706): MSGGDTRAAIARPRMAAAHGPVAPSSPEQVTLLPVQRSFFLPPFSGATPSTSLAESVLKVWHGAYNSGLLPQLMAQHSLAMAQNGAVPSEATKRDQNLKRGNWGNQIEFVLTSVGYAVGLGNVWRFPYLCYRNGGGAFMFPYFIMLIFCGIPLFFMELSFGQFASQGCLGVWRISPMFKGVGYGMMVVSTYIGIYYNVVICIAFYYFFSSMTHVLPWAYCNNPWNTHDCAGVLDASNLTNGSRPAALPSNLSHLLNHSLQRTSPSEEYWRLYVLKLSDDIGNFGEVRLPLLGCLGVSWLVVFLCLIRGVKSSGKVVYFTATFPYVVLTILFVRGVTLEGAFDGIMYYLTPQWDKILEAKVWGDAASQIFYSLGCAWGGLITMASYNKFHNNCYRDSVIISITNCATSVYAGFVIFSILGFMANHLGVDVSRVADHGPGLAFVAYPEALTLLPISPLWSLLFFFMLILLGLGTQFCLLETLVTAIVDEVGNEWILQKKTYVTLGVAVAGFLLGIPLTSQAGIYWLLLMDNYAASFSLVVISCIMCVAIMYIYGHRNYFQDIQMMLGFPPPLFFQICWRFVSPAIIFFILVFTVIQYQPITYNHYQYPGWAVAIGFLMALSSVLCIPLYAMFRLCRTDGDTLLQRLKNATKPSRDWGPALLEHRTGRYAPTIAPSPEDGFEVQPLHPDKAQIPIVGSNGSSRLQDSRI
The test is described as follows: Glycine uptake inhibition experiment ([3H]glycine uptake). It is filed as cell-based. The gist of the method:
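T98G glioma cells expressing human GlyT1 were pretreated 10 min with compound in HEPES buffer pH 7.4 (0.2% BSA), then incubated with compound plus 250 nM final [3H]glycine for 15 min at room temperature. Intracellular radioactivity was counted after NaOH lysis; 10 μM ALX5407 defined non-specific uptake. IC50 came from 10^−9–10^−5 M curves.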

pIC50: −log10 of the molar value.

Results on 23 molecules are retold here after patent US20160130278A1 (TAISHO PHARMACEUTICAL CO., LTD, priority 2013, published 2016).

The pIC50 is the negative decadic logarithm of the IC50, by convention in mol/L. High values mean a small IC50, low ones a large IC50. Regarding `O=C(NC(c1cc(Cl)ccc1F)[C@]1(O)CC[C@@H](F)CC1)c1cc(C(F)(F)F)ncc1Cl` (single isomer, unassigned) [Compound 377, 5-chloro-N-[(5-chloro-2-fluorophenyl)(cis-4-fluoro-1-hydroxycyclohexyl)methyl]-2-(trifluoromethyl)pyridine-4-carboxamide], the pIC50 (GlyT1) is 6.04. On to `O=C(NC(c1cc(Cl)ccc1F)[C@]1(O)CC[C@@H](F)CC1)c1cc(C(F)(F)F)cnc1Cl` (single isomer, unassigned) [Compound 378, 2-chloro-N-[(5-chloro-2-fluroophenyl)(cis-4-fluoro-1-hydroxycyclohexyl)methyl]-5-(trifluoromethyl)pyridine-3-carboxamide], for which the pIC50 (GlyT1) was 5.64.

In the case of `O=C(NC(c1cccc(F)c1Cl)[C@]1(O)CC[C@@H](F)CC1)c1cccc(C(F)(F)F)c1-n1nccn1` (single isomer, unassigned) [Compound 379, N-[(2-chloro-3-fluorophenyl)(cis-4-fluoro-1-hydroxycyclohexyl)methyl]-2-(2H-1,2,3-triazol-2-yl)-3-(trifluoromethyl)benzamide], for the setting “GlyT1”, the pIC50 is 6.10.

`O=C(NC(c1cccc(F)c1Cl)[C@]1(O)CC[C@@H](F)CC1)c1ccc(C(F)(F)F)cc1-n1nccn1` (single isomer, unassigned) [Compound 380, N-[(2-chloro-3-fluorophenyl)(cis-4-fluoro-1-hydroxycyclohexyl)methyl]-2-(2H-1,2,3-triazol-2-yl)-4-(trifluoromethyl)benzamide] had a pIC50 (GlyT1) of 6.57. On the same count and under the same terms, the value for `O=C(NC(c1cccc(F)c1Cl)[C@]1(O)CC[C@@H](F)CC1)c1cc(C(F)(F)F)ccc1-n1nccn1` (single isomer, unassigned) [Compound 381, N-[-(2-chloro-3-fluorophenyl)(cis-4-fluoro-1-hydroxycyclohexyl)methyl]-2-(2H-1,2,3-triazol-2-yl)-5-(trifluoromethyl)benzamide] was 5.92; that for `CN(C(=O)c1nccc(C(F)(F)F)c1Cl)C(c1cccc(F)c1Cl)[C@]1(O)CC[C@@H](F)CC1` (single isomer, unassigned) [Compound 382, 3-chloro-N-[(2-chloro-3-fluorophenyl)(cis-4-fluoro-1-hydroxycyclohexyl)methyl]-N-methyl-4-(trifluoromethyl)pyridine-2-carboxamide] was 6.13; that for `O=C(NC(c1cccc(Cl)n1)C1(O)CCCCC1)c1nccc(C(F)(F)F)c1Cl` (single isomer, unassigned) [Compound 384, 3-chloro-N-[(6-chloropyridin-2-yl)(1-hydroxycyclohexyl)methyl]-4-(trifluoromethyl)pyridine-2-carboxamide] was 8.03. In the case of `O=C(NC(c1cccc(Cl)n1)C1(O)CCCCC1)c1ccnc(C(F)(F)F)c1Cl` (single isomer, unassigned) [Compound 385, 3-chloro-N-[(6-chloropyridin-2-yl)(1-hydroxycyclohexyl)methyl]-2-(trifluoromethyl)pyridine-4-carboxamide], the negative logarithm of the IC50 (pIC50) (GlyT1) was 7.59.

On to `CS(=O)(=O)c1cnc(C(F)(F)F)cc1C(=O)NC(c1cccc(F)c1Cl)[C@]1(O)CC[C@@H](F)CC1` (single isomer, unassigned) [Compound 386, N-[(2-chloro-3-fluorophenyl)(cis-4-fluoro-1-hydroxycyclohexyl)methyl]-5-(methylsulfonyl)-2-(trifluoromethyl)pyridine-4-carboxamide], for which the pIC50 (GlyT1) is 7.46. Still for that read-out and setting: as for `CS(=O)(=O)c1ncc(C(F)(F)F)cc1C(=O)NC(c1cccc(F)c1Cl)[C@]1(O)CC[C@@H](F)CC1` (single isomer, unassigned) [Compound 387, N-[(2-chloro-3-fluorophenyl)(cis-4-fluoro-1-hydroxycyclohexyl)methyl]-2-(methylsulfonyl)-5-(trifluoromethyl)pyridine-3-carboxamide], the figure is 7.44; as for `CS(=O)(=O)c1nc(C(F)(F)F)ccc1C(=O)NC(c1cccc(F)c1Cl)[C@]1(O)CC[C@@H](F)CC1` (single isomer, unassigned) [Compound 388, N-[(2-chloro-3-fluorophenyl)(cis-4-fluoro-1-hydroxycyclohexyl)methyl]-2-(methylsulfonyl)-6-(trifluoromethyl)pyridine-3-carboxamide], 6.59; as for `CS(=O)(=O)c1cc(C(F)(F)F)cnc1C(=O)NC(c1cccc(F)c1Cl)[C@]1(O)CC[C@@H](F)CC1` (single isomer, unassigned) [Compound 389, N-[(2-chloro-3-fluorophenyl)(cis-4-fluoro-1-hydroxycyclohexyl)methyl]-3-(methylsulfonyl)-5-(trifluoromethyl)pyridine-2-carboxamide], 5.74.

Regarding `O=C(NC(c1cccc(F)c1Cl)[C@]1(O)CC[C@@H](F)CC1)c1ccc(C(F)(F)F)cc1-n1cccn1` (single isomer, unassigned) [Compound 390, N-[(2-chloro-3-fluorophenyl)(cis-4-fluoro-1-hydroxycyclohexyl)methyl]-2-(1H-pyrazol-1-yl)-4-(trifluoromethyl)benzamide], the pIC50 (GlyT1) was 6.89. Still for that read-out and setting: the value for `O=C(NC(c1cccc(F)c1Cl)[C@]1(O)CC[C@@H](F)CC1)c1ccc(C(F)(F)F)cc1-n1cnnn1` (single isomer, unassigned) [Compound 391, N-[(2-chloro-3-fluorophenyl)(cis-4-fluoro-1-hydroxycyclohexyl)methyl]-2-(1H-tetrazol-1-yl)-4-(trifluoromethyl)benzamide] was 7.57; that for `O=C(NC(c1cccc(F)c1Cl)[C@]1(O)CC[C@@H](F)CC1)c1ncc(C(F)(F)F)cc1-n1nccn1` (single isomer, unassigned) [Compound 392, N-[(2-chloro-3-fluorophenyl)(cis-4-fluoro-1-hydroxycyclohexyl)methyl]-3-(2H-1,2,3-triazol-2-yl)-5-(trifluoromethyl)pyridine-2-carboxamide] was 6.96. Same read-out and setting: as for `O=C(NC(c1cccc(F)c1Cl)[C@]1(O)CC[C@@H](F)CC1)c1ccc(C(F)(F)F)nc1-n1nccn1` (single isomer, unassigned) [Compound 393, N-[(2-chloro-3-fluorophenyl)(cis-4-fluoro-1-hydroxycyclohexyl)methyl]-2-(2H-1,2,3-triazol-2-yl)-6-(trifluoromethyl)pyridine-3-carboxamide], the figure is 7.40. Same read-out and setting: as for `O=C(NC(c1cccc(F)c1Cl)[C@]1(O)CC[C@@H](F)CC1)c1ccc(C(F)(F)F)nc1-n1ccnn1` (single isomer, unassigned) [Compound 394, N-[(2-chloro-3-fluorophenyl)(cis-4-fluoro-1-hydroxycyclohexyl)methyl]-2-(1H-1,2,3-triazol-1-yl)-6-(trifluoromethyl)pyridine-3-carboxamide], the figure is 5.89; as for `CS(=O)(=O)c1ccc(C(F)(F)F)cc1C(=O)NC(c1ccccc1Cl)C1(O)CCC(F)(F)CC1` (single isomer, unassigned) [Compound 395, N-[(2-chlorophenyl)(4,4-difluoro-1-hydroxycyclohexyl)methyl]-2-(methylsulfonyl)-5-(trifluoromethyl)benzamide], 6.48; as for `CS(=O)(=O)c1ccc(C(F)(F)F)cc1C(=O)NC(c1cc(Cl)ccn1)[C@]1(O)CC[C@@H](F)CC1` (single isomer, unassigned) [Compound 396, N-[(4-chloropyridin-2-yl)(cis-4-fluoro-1-hydroxycyclohexyl]methyl]-2-(methylsulfonyl)-5-(trifluoromethyl)benzamide], 6.54. `O=C(NC(c1cccc(Cl)n1)C1(O)CCCC1)c1nccc(C(F)(F)F)c1Cl` (single isomer, unassigned) [Compound 397, 3-chloro-N-[(6-chloropyridin-2-yl)(1-hydroxycyclopentyl)methyl]-4-(trifluoromethyl)pyridine-2-carboxamide]: the pIC50 (human GlyT1) is 7.80. `O=C(NC(c1cccc(Cl)n1)C1(O)CCCC1)c1nccc(C(F)(F)F)c1Cl` (single isomer, unassigned) [Compound 398, 3-chloro-N-[(6-chloropyridin-2-yl)(1-hydroxycyclopentyl)methyl]-4-(trifluoromethyl)pyridine-2-carboxamide] had a negative logarithm of the IC50 (pIC50) (human GlyT1) of 5.12. The same measure, in the same setting: as for `O=C(NC(c1cccc(F)c1)C1(O)CCC(F)(F)CC1)c1ccnc(C(F)(F)F)c1Cl` (single isomer, unassigned) [Compound 400, 3-chloro-N-[(4,4-difluoro-1-hydroxycyclohexyl)(3-fluorophenyl)methyl]-2-(trifluoromethyl)pyridine-4-carboxamide], the figure is 6.64; as for `CS(=O)(=O)c1cc(C(F)(F)F)ccc1C(=O)NC(c1cccc(F)c1Cl)C1(O)CCC(F)(F)CC1` (single isomer, unassigned) [Compound 401, N-[(2-chloro-3-fluorophenyl)(4,4-difluoro-1-hydroxycyclohexyl)methyl]-2-(methylsulfonyl)-4-(trifluoromethyl)benzamide], 6.64.
